In article PMC8373237 (Antimicrobial Agents and Chemotherapy, 2021):
In brackets after ≈: the same amount, converted by molar mass. Several values for one entry are separate records, joined by “and”; a condition that tells them apart may be missing. Equal entries are not always repeated. Where two headings read alike, the source gives them in different places. Marks after values point to notes of the source that are not given here. Square brackets hold non-standard residues; d marks the D form. Peptide text beside a SMILES is read from it. Nphe = O=C(O)CNCc1ccccc1; NPrGly = CCCNCC(=O)O

Assays:
[1] = tested on: Salmonella flagellar T3SS (FliC, FliD secretion); type: cell-based, Salmonella enterica Typhimurium; set-up: key to Fla fliC (Table 2): NE: No effect observed
[2] = tested on: Y. pseudotuberculosis Ysc T3SS (YopE secretion); type: cell-based, Yersinia pseudotuberculosis
[3] = tested on: Y. enterocolitica Ysa T3SS (YspF secretion); type: cell-based, Yersinia enterocolitica
P. aeruginosa (PAO1) = type: cell-based, Pseudomonas aeruginosa
[4] = tested on: P. aeruginosa PA103 T3SS (ExoU secretion); type: cell-based, Pseudomonas aeruginosa
[5] = tested on: Salmonella T3SS genes (hilA, hilD, invF, sipC, sipA, fliC); assay: mRNA quantification by qPCR of T3SS genes; type: cell-based, Salmonella enterica Typhimurium; conditions: 9 µM, 2 h and 4 h
Protocol: Samples were taken after 3 h of induction. Overnight Salmonella cultures were subcultured into fresh LB with 0.3 M NaCl at 37°C in the presence of 9 μM 4EpDN, 4EpDN 2Sar, or equivalent DMSO. Samples were taken after 2 h and 4 h of induction. Samples were stored in RNAprotect reagent (Qiagen) and processed within a week. Total RNA was isolated using an RNAeasy kit (Qiagen) according to the manufacturer’s instructions, followed by two rounds of Turbo DNase (Thermo Fisher scientific) treatment. A total of 2 μg of RNA was used to make cDNA, and quantitative PCRs (qPCRs) were run with SYBR green PCR master mix (Applied Biosystems). DNA helicase (dnaB) and 16S rRNA genes were used as a reference for P. aeruginosa and Salmonella samples, respectively. Two to three technical replicates were averaged for each sample. Results were analyzed using Bio-Rad CFX software.

[6] = tested on: C. trachomatis serovar L2 in HeLa cells; assay: Chlamydia infection of HeLa cells (primary and secondary infection); type: cell-based, Chlamydia trachomatis
Protocol: Primary infections. HeLa cell monolayers were infected with C. trachomatis serovar L2 at a multiplicity of infection (MOI) of 1.0 in the presence of one of the following compounds at 9 μM: DMSO, 4EpDN, or 4EpDN 2Sar. Cells were incubated for 24 h in the presence of the above-listed compounds at 37°C and then fixed with 4% paraformaldehyde (PFA). Cells were stained for IncA (Chlamydia inclusion membrane marker), DNA (with DAPI), and MOMP (Chlamydia major outer membrane protein) simultaneously. This method of staining allows visualization of the inclusion independent of MOMP synthesis or transport. The percentage of cells infected (i.e., stained positively for the listed Chlamydia markers) in the presence of the compounds was quantified using confocal microscopy. Quantifications of inclusion take into account both DAPI staining and indirect immunofluoresence with an antibody to MOMP. Ten randomly selected fields of view were measured per experiment. The data represent three biological replicates.
Secondary infections. HeLa cell monolayers were infected with C. trachomatis serovar L2 at an MOI of 1.0 in the presence of one of the following compounds at 9 μM: DMSO, 4EpDN, or 4EpDN 2Sar. Cells were incubated for 48 h in the presence of the above-listed compounds at 37°C. Infected cells were then lysed, and the lysate was applied to fresh HeLa monolayers to enumerate infectious particles. These secondary infections were fixed in 4% PFA at 24 hpi and were stained against MOMP and DNA. The infectious units per ml (IFU/ml) were calculated by averaging the number of infected cells in each of 10 randomly selected fields of view at ×40 magnification on a confocal microscope and multiplying this by the appropriate dilution and area factors. The data represent four biological replicates.

Y. pseudotuberculosis = type: cell-based, Yersinia pseudotuberculosis; conditions: 2xYT, 9-120 µM, 12 h
HeLa cells = assay: Cytological profiling (CP); type: cell-based; conditions: concentration used in Chlamydia infection
Protocol: Briefly, HeLa cells were cultured and seeded into 384-well plates at 2,500 cells/well. After 48 h, compounds were added using a Janus MDT robot (PerkinElmer). Two stain sets were used—stain set 1, Hoechst, EdUrhodamine, anti-phosphohistone H3, and GM130; stain set 2, Hoechst, fluorescein isothiocyanate (FITC)-alpha tubulin, rhodamine-phalloidin, and calnexin. For stain set 1, cells were incubated with 20 μM EdUrhodamine for 1 h prior to fixing in 4% formaldehyde solution in PBS for 20 min. Cells were then washed with PBS and permeabilized with 0.5% Triton X-100 in PBS for 10 min before blocking with 2% BSA in PBS solution for at least 1 h. Following this, cells were incubated with primary antibodies overnight at 4°C. The following day, excess primary antibody was washed off with PBS and Alexa-488, and Alexa-647 secondary antibodies and Hoechst solution were incubated for 1 h. Plates were washed with PBS and preserved with 0.1% sodium azide in PBS solution prior to imaging. For stain set 2, cells were fixed with a 4% formaldehyde solution in PBS for 20 min. Cells were then washed with PBS and permeabilized with 0.5% Triton X-100 in PBS for 10 min before blocking with 2% BSA in PBS solution for at least 1 h. Following this, cells were incubated with primary antibodies overnight at 4°C. […]

[7] = tested on: P. aeruginosa PA103 T3SS (ExsE secretion); type: cell-based, Pseudomonas aeruginosa
Kinetic solubility = type: physicochemical
Protocol: […] Then, […] of 15 mM stock compound was added to make a solution of 120 μM final concentration with 0.8% DMSO. The solution was shaken at 37°C for ∼2 h. The solution was passed over a 0.7- μM glass fiber filter. Then, the solution was diluted 1:4 in acetonitrile to crash out any proteins. The solution was centrifuged at 500 × g for 10 min. Avoiding the pellet, 10 μl of supernatant was added to a fresh plate with 90 μl of acetonitrile. The final dilution is 40 times lower. Next, 10 μl of 40× dilution of solution was injected on the Orbi-trap. A 1 μM standard was used for the ratiometric comparison, and the assay was done in triplicate.

[8] = tested on: Y. pseudotuberculosis twin arginine translocation (Tat) system; type: cell-based, Yersinia pseudotuberculosis; conditions: culture optical density, 4 and 6 h
[9] = tested on: Salmonella enterica Typhimurium SPI-1 T3SS (SipA, SipC secretion); type: cell-based
[10] = tested on: Salmonella enterica Typhimurium SPI-1 T3SS; conditions: translocation assay, cited from earlier work
Ssa-Esc T3SS, EPEC/EHEC [11] = tested on: Ssa-Esc T3SS, EPEC/EHEC; set-up: method as in PMID 33316970; conditions: translocation assay; ref [109]; read-out: IC50, EspF translocation; cited from earlier work
[12] = tested on: Salmonella enterica Typhimurium SPI-1 T3SS; conditions: culture-based secretion assay, cited from earlier work
flagella (Fla), fliC = tested on: flagella (Fla), fliC; set-up: key: NE: No effect observed; conditions: ref [102]; cited from earlier work
Ssa-Esc T3SS, EPEC/EHEC [13] = conditions: culture-based secretion assay; ref [87]; cited from earlier work
[14] = tested on: Yersinia pseudotuberculosis Ysc T3SS; conditions: culture-based secretion assay; ref [87]; cited from earlier work

CCCN1CC(=O)N(Cc2ccccc2)CC(=O)N[C@@H](CC(C)C)C(=O)N[C@@H]([C@@H](C)CC)C(=O)N[C@H](CC(C)C)C(=O)N[C@H](Cc2ccccc2)C1=O [4EpDN, 4-EpD1,2N] (cyclo(I[dL][dF][NPrGly][Nphe]L))
Fla fliC (Table 2) [1]: NE^d
concentration inhibiting FliC secretion [1]: ≥ 60 µM
lowest known inhibitory concentration (∼), YopE secretion ([2]; Table 2, Ysc, culture-based secretion assay): ∼7.5 YopE^b μM
T3SS effector secretion inhibited, fold ([2]; same concentration as YscF staining (60 μM)): 4 fold
IC50 [3]: 16100 nM
secretion of YspF, in words [3]: inhibited secretion of YspF in a dose-dependent manner
bacterial viability in broth culture (P. aeruginosa (PAO1)): did not affect bacterial viability
fold more potent than its parental compound [4]: 2 fold
inhibition of ExoU secretion ([4]; 9 µM): ~75%
inhibition of ExoU secretion ([4]; 60 µM): ~75%
IC50 ([4]; read-out: IC50, inhibition of secretion of T3SS effector ExoU): 3900 nM
expression of T3SS genes (qPCR), in words [5]: nor did it impact T3SS gene transcription
inhibition of formation of infectious progeny ([6]; 9 μM, EBs collected at 48 hpi, fresh monolayers 24 h): ~98%
decrease of primary inclusion formation ([6]; 9 μM, HeLa cells, 24 hpi): ~50%
lowest known inhibitory concentration (∼), cell-based infection assay, Chlamydia ([6]; Table 2, Chlamydiales): ∼9^c μM
bacterial viability in broth culture (Y. pseudotuberculosis): did not affect bacterial viability
changes to actin cytoskeleton, Golgi network, endoplasmic reticulum, microtubule network (HeLa cells): did not show any gross changes
inhibition of ExsE secretion ([7]; 9 µM): did not significantly inhibit
inhibition of ExsE secretion ([7]; 60 µM): ~40%
solubility kinetic (Kinetic solubility): 13 µM (≈ 9.53 µg/mL)
solubility (Kinetic solubility; DMEM (no antibiotics)): 12 µM (≈ 8.8 µg/mL)
solubility (Kinetic solubility; M9): 10 µM (≈ 7.33 µg/mL)
growth of SufI-β-lactamase Tat reporter bacteria in penicillin G / Tat inhibition, in words [8]: does not inhibit the Tat secretion system
IC50 ([9]; read-out: IC50, SipAC secretion (SPI-1 T3SS)): 1000 nM
IC50 ([9]; read-out: IC50, SipC secretion): ~1000 nM and ~800 nM

O=c1c(O)c(-c2cc(O)c(O)c(O)c2)oc2cc(O)cc(O)c12 [Myricetin]
lowest known inhibitory concentration (∼), SipA/B translocation ([10]; ref [107]): ∼4 μg/ml SipA/B^f

Tannic acid
IC50 (Ssa-Esc T3SS, EPEC/EHEC [11]): 650 nM

Cc1ccc(C(C)C)c(O)c1 [Thymol]
lowest known inhibitory concentration (∼), SipA translocation ([10]; ref [90]): ∼0.2 mM SipA^f

CCCCCCCC(=O)c1c(O)cc(O)cc1CC(=O)OCC [Cytosporone B]
IC50 ([12]; ref [102], read-out: IC50, SipC secretion): 6250 nM
Fla fliC (flagella (Fla), fliC): NE^d

O=C(O[C@@H]1Cc2c(O)cc(O)cc2O[C@@H]1c1cc(O)c(O)c(O)c1)c1cc(O)c(O)c(O)c1 [Epigallocatechin gallate]
lowest known inhibitory concentration (∼), Sips secretion ([12]; ref [87]): ∼12μg/ml Sips^b
lowest known inhibitory concentration (∼), EspB secretion (Ssa-Esc T3SS, EPEC/EHEC [13]): ∼16 μg/ml EspB^b
lowest known inhibitory concentration (∼), Yops secretion [14]: ∼16 μg/ml Yops^b
IC50 (Ssa-Esc T3SS, EPEC/EHEC [11]): 1800 nM
